The source of these data is article PMC8119899, “A Single Mutation in the Outer Lipid-Facing Helix of a Pentameric Ligand-Gated Ion Channel Affects Channel Function Through a Radially-Propagating Mechanism” (Frontiers in Molecular Biosciences, 2021).

Positions count from the first letter of the chain named.

Common to all, as to type: cell-based
In one assay the target is T1, 5-HT3A receptor C290A (Mus musculus, UniProt P23979, C317A).
T1 sequence (P23979 24-489 C317A): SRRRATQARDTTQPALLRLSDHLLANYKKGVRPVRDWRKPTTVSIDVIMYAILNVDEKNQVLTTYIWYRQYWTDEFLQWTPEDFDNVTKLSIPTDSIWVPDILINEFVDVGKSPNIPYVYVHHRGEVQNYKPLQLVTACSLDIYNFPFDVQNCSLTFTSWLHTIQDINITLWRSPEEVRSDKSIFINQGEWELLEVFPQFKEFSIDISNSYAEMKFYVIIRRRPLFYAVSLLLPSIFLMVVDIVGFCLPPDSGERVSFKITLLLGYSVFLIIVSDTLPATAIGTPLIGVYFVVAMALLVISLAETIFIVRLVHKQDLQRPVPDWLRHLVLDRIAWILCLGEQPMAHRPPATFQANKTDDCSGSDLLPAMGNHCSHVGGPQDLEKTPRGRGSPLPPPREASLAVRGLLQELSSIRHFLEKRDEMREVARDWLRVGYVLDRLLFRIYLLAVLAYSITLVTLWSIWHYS
The experiment in a line: FlexStation membrane potential dye, 5-HT response, C290A receptor in HEK293 cells. The arrangement: expressed in transfected cells; host or cells: HEK293. Particulars: mean and SEM, n ≥ 3. On the procedure: (§1) The mouse 5-HT3A cDNA (Q6J1J7) in pcDNA3.1 (for HEK cell transfection) or pGEMHE (for RNA production) was modified by QuikChange site-directed mutagenesis (Agilent Technologies) to create point mutants (verified by sequencing).
(§2) Human embryonic kidney (HEK) 293 cells were maintained at 37 °C at 5% CO2 in a humidified atmosphere, in Dulbecco's Modified Eagle's Medium/Nutrient Mix F12 (1:1) (Invitrogen, Paisley, UK) with GlutaMAX^TM and 10% fetal bovine serum (GE Healthcare) (DMEM/FBS) and passaged when confluent.
(§3) As described previously (Price and Lummis, [2005]) cells were incubated for 45 min with fluorescent membrane potential-sensitive dye (Membrane Potential Blue kit, Molecular Devices) diluted in Flex buffer (10 mM HEPES, 115 mM NaCl, 1 mM KCl, 1 mM CaCl2, 1 mM MgCl2, and 10 mM glucose, pH 7.4), and subsequently assayed at room temperature for 180 s, with readings every 2 s. […] (log of the concentration of ligand), a is the minimum response, b is the maximum response, and nH is the Hill slope.

The next assay addresses T2, 5-HT3A receptor K255Q (Mus musculus, UniProt P23979, K282Q).
T2 construct: expressed in transfected cells; host or cells: Xenopus laevis oocytes (cRNA injection)
T2 sequence (P23979 24-489 K282Q): T1 sequence (P23979 24-489 C317A) with K259Q, A294C
The experiment in a line: FlexStation membrane potential dye, 5-HT response, K255Q receptor in HEK293 cells. The settings on record: mean and SEM, n ≥ 3. The protocol: as §1, §2, §3

For the next assay, the target named is T3, 5-HT3A receptor S297A (Mus musculus, UniProt P23979, S324A).
T3 construct: expressed in transfected cells; host or cells: HEK293
T3 sequence (P23979 24-489 S324A): T1 sequence (P23979 24-489 C317A) with A294C, S301A
The experiment in a line: FlexStation membrane potential dye, 5-HT response, S297A receptor in HEK293 cells. Particulars: mean and SEM, n ≥ 3. The protocol:
as §1, §2, §3

A further assay has as its target T4, 5-HT3A receptor D238A (Mus musculus, UniProt P23979, D265A).
T4 sequence (P23979 24-489 D265A): T1 sequence (P23979 24-489 C317A) with D242A, A294C
The experiment in a line: Two-electrode voltage clamp, 5-HT response, D238A receptor in Xenopus oocytes. The arrangement: key: Mutants that did not respond in the functional assay are marked as non functional (NF). The protocol: as §1
Xenopus laevis oocytes from EcoCyte Biosciences (Austin Texas) were injected with 100 pg cRNA (generated with the ThermoFisher mMESSAGE mMACHINE T7 transcription kit) and left in injection media [88 mM NaCl, 2.4 mM NaHCO3, 1 mM KCl, 0.82 mM MgSO4 ·7H20, 5 mM Tris-HCl, 0.33 mM Ca(NO3)2·4H2O, 0.41 mM CaCl2·2H2O, 2.51 mM sodium pyruvate, 0.12 mg/ml theophylline, 0.05 mg/ml gentamicin, pH 7.5] at 16 °C for 24 h. […] The holding potential was −60 mV, using glass microelectrodes with a resistance of approximately 1 MΩ backfilled with 3M KCl.
For orientation: Two-electrode voltage clamp is typically applied to oocytes expressing channels or transporters.

Take `NCCc1c[nH]c2ccc(O)cc12` [5-HT]: the nH on 5-HT3A receptor C290A is given as 1.2 ± 0.2; at 5-HT3A receptor K255Q, 1.9± 0.2; on 5-HT3A receptor S297A, 3.5 ± 0.8. For the same compound, at 5-HT3A receptor D238A, the pEC50 entry is reported as “NF”.
